Experimental data as given in ChEMBL document CHEMBL5465560, “Selectivity Literature for EUbOPEN Chemogenomic Library” (2024).
Each block holds one compound with its values, some of them ahead of it.

What was measured:
[1] = biological target: Ephrin type-A receptor 5 (Homo sapiens) (UniProt P54756); conditions: at 10 µM
[2] = biological target: T1, Inhibitor of nuclear factor kappa-B kinase subunit alpha (Homo sapiens) (UniProt O15111); experiment: Selectivity interaction (Kinase panel (Invitrogen)) EUB0000639a CHUK; conditions: at 200 nM
T1 sequence (whole entry): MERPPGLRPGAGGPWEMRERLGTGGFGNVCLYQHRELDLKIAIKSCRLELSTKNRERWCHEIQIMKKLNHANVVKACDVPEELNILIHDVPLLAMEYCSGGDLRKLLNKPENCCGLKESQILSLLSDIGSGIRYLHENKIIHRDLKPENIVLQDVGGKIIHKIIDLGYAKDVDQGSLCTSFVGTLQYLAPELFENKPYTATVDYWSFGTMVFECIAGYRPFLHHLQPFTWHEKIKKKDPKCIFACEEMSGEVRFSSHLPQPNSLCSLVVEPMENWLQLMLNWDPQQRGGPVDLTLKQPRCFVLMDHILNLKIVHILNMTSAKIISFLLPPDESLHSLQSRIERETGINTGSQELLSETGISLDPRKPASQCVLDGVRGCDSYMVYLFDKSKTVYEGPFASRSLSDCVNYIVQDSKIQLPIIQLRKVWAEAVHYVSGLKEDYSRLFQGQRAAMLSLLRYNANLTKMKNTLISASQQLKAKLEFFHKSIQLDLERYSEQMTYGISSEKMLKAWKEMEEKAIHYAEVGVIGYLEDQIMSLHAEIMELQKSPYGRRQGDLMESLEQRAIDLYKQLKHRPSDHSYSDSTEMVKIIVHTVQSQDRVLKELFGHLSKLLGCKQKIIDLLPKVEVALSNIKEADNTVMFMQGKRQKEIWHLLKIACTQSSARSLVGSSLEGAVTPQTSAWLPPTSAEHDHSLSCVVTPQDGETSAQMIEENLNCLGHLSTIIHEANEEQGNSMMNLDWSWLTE

[3] = biological target: Aurora kinase B (Homo sapiens, UniProt Q96GD4); experiment: Selectivity interaction (Kinase panel (Z-LYTE Assay)) EUB0001632a AURKB; conditions: at 10 µM
Sequence of Aurora kinase B (Q96GD4 whole entry): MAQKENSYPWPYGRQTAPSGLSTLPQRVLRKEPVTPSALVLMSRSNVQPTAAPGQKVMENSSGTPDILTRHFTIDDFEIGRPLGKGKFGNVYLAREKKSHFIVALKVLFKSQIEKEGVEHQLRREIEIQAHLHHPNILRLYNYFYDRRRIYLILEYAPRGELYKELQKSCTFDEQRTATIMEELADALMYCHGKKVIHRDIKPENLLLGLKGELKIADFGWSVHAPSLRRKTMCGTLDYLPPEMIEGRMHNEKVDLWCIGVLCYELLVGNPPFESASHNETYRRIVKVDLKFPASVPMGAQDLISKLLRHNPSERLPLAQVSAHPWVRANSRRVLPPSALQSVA

[4] = biological target: Cyclin-dependent kinase 9 (Homo sapiens, UniProt P50750); experiment: Selectivity interaction (LanthaScreen Eu Kinase Binding Assay) EUB0001632a CDK9; conditions: at 10 µM
Sequence of Cyclin-dependent kinase 9 (P50750 whole entry): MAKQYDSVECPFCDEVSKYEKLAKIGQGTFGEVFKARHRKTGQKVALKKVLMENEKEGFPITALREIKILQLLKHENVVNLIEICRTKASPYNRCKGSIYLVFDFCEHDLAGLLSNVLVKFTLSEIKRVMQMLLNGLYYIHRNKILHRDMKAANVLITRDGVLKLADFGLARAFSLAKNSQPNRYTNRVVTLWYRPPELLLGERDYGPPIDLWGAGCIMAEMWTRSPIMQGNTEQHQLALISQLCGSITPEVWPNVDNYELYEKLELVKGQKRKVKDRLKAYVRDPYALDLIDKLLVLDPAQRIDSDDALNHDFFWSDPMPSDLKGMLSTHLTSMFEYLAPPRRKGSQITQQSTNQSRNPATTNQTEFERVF

[5] = biological target: T2, Serine/threonine-protein kinase tousled-like 1 (Homo sapiens) (UniProt Q9UKI8); conditions: at 10 µM
T2 sequence (whole entry): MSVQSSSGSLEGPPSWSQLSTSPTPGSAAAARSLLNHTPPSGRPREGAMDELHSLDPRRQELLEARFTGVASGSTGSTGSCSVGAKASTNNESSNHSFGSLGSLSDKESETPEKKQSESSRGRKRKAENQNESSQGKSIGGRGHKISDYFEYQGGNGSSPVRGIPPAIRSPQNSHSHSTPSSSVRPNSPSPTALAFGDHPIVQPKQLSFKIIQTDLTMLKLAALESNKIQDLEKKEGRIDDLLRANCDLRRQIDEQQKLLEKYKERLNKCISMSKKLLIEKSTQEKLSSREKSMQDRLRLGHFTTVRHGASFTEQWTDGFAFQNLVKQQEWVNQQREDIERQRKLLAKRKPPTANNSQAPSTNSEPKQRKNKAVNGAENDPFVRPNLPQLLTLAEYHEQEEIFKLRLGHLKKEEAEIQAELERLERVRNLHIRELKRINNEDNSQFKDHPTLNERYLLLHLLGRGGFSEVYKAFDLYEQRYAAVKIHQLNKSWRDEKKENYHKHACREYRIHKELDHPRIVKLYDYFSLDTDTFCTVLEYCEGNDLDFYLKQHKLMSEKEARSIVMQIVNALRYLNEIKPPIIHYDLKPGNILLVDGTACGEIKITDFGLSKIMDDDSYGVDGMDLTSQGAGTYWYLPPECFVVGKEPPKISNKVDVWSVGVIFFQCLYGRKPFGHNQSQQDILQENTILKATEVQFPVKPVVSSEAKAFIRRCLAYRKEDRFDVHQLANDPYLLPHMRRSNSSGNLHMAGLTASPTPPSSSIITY

[6] = biological target: Glucocorticoid receptor (Homo sapiens) (UniProt P04150); experiment: Selectivity interaction (Panel of non-epigenetic targets (kinases, GPCRs, ion channels, and transporters, Eurofins) ) EUB0000271b NR3C1; conditions: at 1 µM
Sequence of Glucocorticoid receptor (Homo sapiens) (P04150 whole entry): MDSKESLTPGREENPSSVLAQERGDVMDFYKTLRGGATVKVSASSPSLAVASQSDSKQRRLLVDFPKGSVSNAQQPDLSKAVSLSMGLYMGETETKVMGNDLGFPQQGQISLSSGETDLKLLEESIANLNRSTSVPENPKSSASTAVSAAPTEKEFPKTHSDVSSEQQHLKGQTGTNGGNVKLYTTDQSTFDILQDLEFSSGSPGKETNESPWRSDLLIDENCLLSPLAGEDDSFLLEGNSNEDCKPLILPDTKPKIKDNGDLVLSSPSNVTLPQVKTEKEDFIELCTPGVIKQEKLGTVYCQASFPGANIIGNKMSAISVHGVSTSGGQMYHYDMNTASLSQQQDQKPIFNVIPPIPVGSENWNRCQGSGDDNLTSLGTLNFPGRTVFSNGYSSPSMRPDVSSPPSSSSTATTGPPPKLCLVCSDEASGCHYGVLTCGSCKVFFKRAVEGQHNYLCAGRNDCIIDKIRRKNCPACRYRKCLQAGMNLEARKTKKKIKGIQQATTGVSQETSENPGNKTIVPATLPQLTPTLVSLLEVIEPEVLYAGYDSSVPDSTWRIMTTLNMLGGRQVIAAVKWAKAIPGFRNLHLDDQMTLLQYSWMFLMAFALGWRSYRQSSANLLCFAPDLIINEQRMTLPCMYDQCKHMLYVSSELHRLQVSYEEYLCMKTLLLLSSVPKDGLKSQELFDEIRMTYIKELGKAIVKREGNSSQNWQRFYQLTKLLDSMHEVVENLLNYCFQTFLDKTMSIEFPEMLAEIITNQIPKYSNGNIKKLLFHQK

[7] = biological target: Mitogen-activated protein kinase 3 (Homo sapiens, UniProt P27361); experiment: Selectivity interaction (KinomeScan (DiscoverX)) EUB0000092b MAPK3; conditions: at 10 µM
Sequence of Mitogen-activated protein kinase 3 (P27361 whole entry): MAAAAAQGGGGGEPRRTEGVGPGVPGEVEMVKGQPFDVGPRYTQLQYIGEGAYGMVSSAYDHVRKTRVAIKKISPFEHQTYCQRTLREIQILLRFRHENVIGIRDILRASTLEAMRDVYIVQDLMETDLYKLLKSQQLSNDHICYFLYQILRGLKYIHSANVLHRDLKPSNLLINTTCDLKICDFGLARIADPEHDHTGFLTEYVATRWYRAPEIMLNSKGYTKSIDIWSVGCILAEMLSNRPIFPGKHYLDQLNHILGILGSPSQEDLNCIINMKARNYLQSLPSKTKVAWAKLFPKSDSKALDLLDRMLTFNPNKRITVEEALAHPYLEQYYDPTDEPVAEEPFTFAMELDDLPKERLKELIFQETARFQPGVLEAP

[8] = biological target: Cyclin-dependent kinase 2/cyclin E (Homo sapiens) (UniProt P24864+P24941+O96020); experiment: Selectivity interaction (Upstate Kinase Profiler service (Millipore)) EUB0000056c CDK2; format: protein-complex assay; conditions: at 1 µM
[9] = biological target: Tyrosine-protein kinase Fes/Fps (Homo sapiens) (UniProt P07332); experiment: Selectivity interaction (KinomeScan (DiscoverX)) EUB0000655a FES; conditions: at 10 µM
Sequence of Tyrosine-protein kinase Fes/Fps (Homo sapiens) (P07332 whole entry): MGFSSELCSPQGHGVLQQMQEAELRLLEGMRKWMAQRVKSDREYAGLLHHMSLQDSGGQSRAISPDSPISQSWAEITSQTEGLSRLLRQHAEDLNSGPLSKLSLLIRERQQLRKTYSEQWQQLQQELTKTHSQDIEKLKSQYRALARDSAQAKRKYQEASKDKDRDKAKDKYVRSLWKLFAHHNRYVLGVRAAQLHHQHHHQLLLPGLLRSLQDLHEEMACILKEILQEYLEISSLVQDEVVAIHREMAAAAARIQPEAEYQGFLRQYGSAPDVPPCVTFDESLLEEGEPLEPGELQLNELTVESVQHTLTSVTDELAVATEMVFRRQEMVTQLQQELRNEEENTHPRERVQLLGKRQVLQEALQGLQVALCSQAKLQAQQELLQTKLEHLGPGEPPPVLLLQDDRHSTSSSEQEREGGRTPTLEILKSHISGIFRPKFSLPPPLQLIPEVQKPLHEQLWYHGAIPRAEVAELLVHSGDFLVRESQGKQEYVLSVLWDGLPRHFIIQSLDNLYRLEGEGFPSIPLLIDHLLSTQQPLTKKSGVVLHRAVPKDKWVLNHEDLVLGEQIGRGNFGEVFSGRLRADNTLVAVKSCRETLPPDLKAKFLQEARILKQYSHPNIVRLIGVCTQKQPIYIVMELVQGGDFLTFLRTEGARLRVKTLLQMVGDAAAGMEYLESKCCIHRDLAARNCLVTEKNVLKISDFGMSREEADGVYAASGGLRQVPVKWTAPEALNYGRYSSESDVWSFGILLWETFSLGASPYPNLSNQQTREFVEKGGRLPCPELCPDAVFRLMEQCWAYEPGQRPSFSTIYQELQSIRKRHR

[10] = biological target: Dual specificity protein kinase CLK4 (Homo sapiens, UniProt Q9HAZ1); experiment: Selectivity interaction (KinomeScan (DiscoverX)) EUB0000655a CLK4; conditions: at 10 µM
Sequence of Dual specificity protein kinase CLK4 (Q9HAZ1 whole entry, looked up): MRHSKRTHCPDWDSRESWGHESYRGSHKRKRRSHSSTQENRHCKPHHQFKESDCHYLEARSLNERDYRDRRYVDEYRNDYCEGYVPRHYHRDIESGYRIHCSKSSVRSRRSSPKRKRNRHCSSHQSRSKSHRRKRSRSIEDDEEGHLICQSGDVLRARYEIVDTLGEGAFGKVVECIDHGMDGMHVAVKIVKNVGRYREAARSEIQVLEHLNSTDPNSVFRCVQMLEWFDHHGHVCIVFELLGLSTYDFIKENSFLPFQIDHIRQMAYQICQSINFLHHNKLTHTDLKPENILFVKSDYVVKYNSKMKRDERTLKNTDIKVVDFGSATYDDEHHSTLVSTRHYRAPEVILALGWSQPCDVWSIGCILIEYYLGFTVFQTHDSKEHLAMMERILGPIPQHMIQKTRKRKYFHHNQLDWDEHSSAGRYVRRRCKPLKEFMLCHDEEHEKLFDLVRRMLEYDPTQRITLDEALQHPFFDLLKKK

[11] = biological target: T3, Membrane-associated tyrosine- and threonine-specific cdc2-inhibitory kinase (Homo sapiens) (UniProt Q99640); experiment: Selectivity interaction (Kinase panel (DSF assay)) EUB0001558a PKMYT1
T3 sequence (whole entry): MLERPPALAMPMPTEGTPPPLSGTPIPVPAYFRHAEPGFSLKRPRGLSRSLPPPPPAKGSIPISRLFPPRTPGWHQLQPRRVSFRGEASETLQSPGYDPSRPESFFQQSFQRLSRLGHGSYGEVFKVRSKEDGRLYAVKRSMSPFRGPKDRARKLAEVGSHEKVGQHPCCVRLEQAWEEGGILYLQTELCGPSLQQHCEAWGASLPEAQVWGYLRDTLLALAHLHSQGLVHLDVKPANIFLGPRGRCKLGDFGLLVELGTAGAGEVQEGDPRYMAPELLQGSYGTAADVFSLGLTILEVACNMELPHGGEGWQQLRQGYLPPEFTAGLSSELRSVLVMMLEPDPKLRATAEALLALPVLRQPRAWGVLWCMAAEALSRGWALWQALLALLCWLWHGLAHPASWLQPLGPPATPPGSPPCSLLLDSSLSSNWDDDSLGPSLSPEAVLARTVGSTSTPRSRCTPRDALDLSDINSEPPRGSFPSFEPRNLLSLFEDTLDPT

Sequence of Ephrin type-A receptor 5 (Homo sapiens) (P54756 whole entry): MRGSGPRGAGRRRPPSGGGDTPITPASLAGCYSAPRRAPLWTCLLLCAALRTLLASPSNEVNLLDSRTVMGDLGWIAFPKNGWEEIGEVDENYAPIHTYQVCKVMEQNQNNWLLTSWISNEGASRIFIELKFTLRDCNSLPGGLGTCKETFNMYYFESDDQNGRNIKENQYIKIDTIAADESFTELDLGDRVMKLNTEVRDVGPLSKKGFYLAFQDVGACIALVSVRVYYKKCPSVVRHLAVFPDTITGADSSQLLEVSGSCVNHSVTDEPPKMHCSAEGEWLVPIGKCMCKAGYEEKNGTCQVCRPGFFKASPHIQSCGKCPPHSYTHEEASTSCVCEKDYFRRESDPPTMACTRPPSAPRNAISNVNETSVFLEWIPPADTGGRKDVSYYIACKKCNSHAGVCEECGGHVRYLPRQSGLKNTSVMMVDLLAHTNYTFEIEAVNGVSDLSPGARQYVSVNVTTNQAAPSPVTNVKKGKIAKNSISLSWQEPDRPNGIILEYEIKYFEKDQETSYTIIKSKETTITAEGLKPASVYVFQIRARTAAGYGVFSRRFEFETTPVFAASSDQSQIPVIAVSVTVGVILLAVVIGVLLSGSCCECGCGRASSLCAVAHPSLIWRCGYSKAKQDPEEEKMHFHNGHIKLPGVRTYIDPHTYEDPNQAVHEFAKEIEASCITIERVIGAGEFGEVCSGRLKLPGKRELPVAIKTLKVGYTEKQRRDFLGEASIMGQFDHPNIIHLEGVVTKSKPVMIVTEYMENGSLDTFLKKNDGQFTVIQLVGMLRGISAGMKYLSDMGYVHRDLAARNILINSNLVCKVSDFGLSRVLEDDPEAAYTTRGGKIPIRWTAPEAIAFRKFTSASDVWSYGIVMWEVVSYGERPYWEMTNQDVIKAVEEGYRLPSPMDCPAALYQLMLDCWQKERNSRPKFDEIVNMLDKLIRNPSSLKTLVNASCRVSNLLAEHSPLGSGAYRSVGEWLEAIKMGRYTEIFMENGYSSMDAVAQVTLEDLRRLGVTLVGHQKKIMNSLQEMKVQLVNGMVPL

Compound: Cc1cc([C@@H](C)Nc2ccccc2C(=O)O)c2nc(N3CCOCC3)cc(=O)n2c1 [AZD-6482]
- % of control [1]: 99%

- % of inhibition [2]: -5.38%
Compound: CC[C@@H]1[C@H](F)C(=O)N[C@@H]1COc1nccc2cc(C(N)=O)c(OC)cc12 [ZIMLOVISERTIB]

- % of control [3]: 11.8%
- % of inhibition [4]: -166%
Compound: Cn1cc(-n2cnc3c(NCc4nc5cc(Cl)c(Cl)cc5[nH]4)nc(N4CCOCC4)nc32)cn1

- % of control [5]: 100%
Compound: CCN(CC)CCCCNc1ncc2cc(-c3cc(OC)cc(OC)c3)c(NC(=O)NC(C)(C)C)nc2n1

Compound: Cc1cc(C)cc([C@@H]2c3cc(C)ccc3NC(=O)CN2C(=O)c2ccc(Br)s2)c1
- % of inhibition [6]: 15%

Compound: CCC(=O)N1CCN(c2ccc(-n3c(=O)ccc4cnc5ccc(-c6cnc7ccccc7c6)cc5c43)cc2C(F)(F)F)CC1
- % of control [7]: 91%

- % of inhibition [8]: 35%
Compound: Cc1ccc(-c2ccc3c(ccc4sc5c(c43)NC[C@@H](C)NC5=O)n2)cn1

Compound: CN(C)CCOc1ccc(-c2nc(-c3ccncc3)c(-c3ccc4c(c3)CC/C4=N\O)[nH]2)cc1
- % of control [9]: 100%
- % of control [10]: 68%

Compound: CC(C)(O)[C@H](F)CN1Cc2cc(NC(=O)c3cnn4cccnc34)c(N3CCOCC3)cc2C1=O
- dTM [11]: 0.5 K
